Results from patent US20230339952A1, “MACROCYCLIC HETEROCYCLES AND USES THEREOF” (Kumquat Biosciences Inc., priority 2022, published 2023).
Read-outs that look alike come from different tables or passages of the source.

Legend:
SOS1 = SOS1 (Homo sapiens (Human), UniProt Q07889); test: Ras-SOS interaction assay (HTRF), K-Ras G13D utilized; format: binding; conditions: K-Ras G13D
[1] = system: NCI-H1975 (ATCC CRL-5908) cell line comprising an EGFR T790M L858R double mutation; test: EGFR-SOS cellular inhibition assay (CellTiter-Glo cell proliferation); format: cell-based; conditions: Homo sapiens
Description: A CellTiter-Glo (CTG) luminescent based assay (Promega) is used to assess growth of the cells, as a measurement of the ability of the compounds herein to inhibit EGFR signaling in the cells. […] The day after plating, cells are treated with a dilution series (e.g., a 9 point 3-fold dilution series) of the compounds herein (e.g., approximately 125 μL final volume per well).

[2] = 120 h, NCI-H1975 cell proliferation, approximately 5 days, read-out: H1975 IC50
[3] = read-out: IC50 value against SOS1

SOS1, sequence (Q07889 564-1049): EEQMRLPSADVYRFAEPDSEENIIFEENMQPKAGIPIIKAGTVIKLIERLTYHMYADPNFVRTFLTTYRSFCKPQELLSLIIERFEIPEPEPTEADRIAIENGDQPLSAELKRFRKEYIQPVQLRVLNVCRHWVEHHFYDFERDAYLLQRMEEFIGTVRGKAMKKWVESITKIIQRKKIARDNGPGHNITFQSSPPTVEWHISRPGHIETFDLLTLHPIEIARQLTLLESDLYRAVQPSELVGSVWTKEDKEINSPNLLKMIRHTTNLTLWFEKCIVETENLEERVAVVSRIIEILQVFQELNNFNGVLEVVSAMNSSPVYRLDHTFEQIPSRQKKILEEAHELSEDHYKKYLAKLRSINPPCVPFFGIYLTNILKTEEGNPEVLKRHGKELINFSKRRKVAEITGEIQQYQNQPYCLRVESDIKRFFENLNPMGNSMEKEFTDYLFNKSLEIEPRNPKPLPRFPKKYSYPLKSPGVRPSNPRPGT

IC50 (SOS1; read-out: SOS1 IC50) | IC50 [1, 2] | IC50 (SOS1; [3]) | IC50 ([1]; NCI-H1975, EGFR T790M L858R double mutation, read-out: IC50 in inhibiting growth of NCI-H1975 cell line) | SMILES
< 100 nM | < 1000 nM |  |  | C[C@H]1Nc2ncnc3c2cc(C2(C#N)CC2)c(=O)n3CCCCNC(=O)CN2CCC(CC2)C(F)(F)c2cccc1c2F [Compound 147, 1-((4R)-3^2,2,2-trifluoro-4-methyl-6^7,12-dioxo-6^7,6^8-dihydro-5,11-diaza-6(4,8)-pyrido[2,3-d]pyrimidina-1(4,1)-piperidina-3(1,3)-benzenacyclotridecaphane-6^6-yl)cyclopropane-1-carbonitrile]
< 100 nM | < 1000 nM |  |  | CC(C)N1CCC(c2cc3c4ncnc3n(c2=O)CCCC/C=C/CN2CCC(CC2)C(F)(F)c2cccc(c2)[C@@H](C)N4)CC1 [Compound 149, (4R,E)-2,2-difluoro-6^6-(1-isopropylpiperidin-4-yl)-4-methyl-6^7,6^8-dihydro-5-aza-6(4,8)-pyrido[2,3-d]pyrimidina-1(4,1)-piperidina-3(1,3)-benzenacyclotridecaphan-11-en-6^7-one]
< 100 nM | < 1000 nM |  |  | C[C@H]1Nc2ncnc3c2cc(C2CCS(=O)(=O)CC2)c(=O)n3CCCCCN2CCC(CC2)CCC(F)(F)c2cccc1c2F [Compound 151, (3R)-1^6-(1,1-dioxidotetrahydro-2H-thiopyran-4-yl)-4^2,5,5-trifluoro-3-methyl-1^7,1^8-dihydro-2-aza-1(4,8)-pyrido[2,3-d]pyrimidina-8(4,1)-piperidina-4(1,3)-benzenacyclotridecaphan-1^7-one]
< 100 nM | < 1000 nM |  |  | C[C@H]1Nc2ncnc3c2cc(C2(C#N)CC2)c(=O)n3CCCCNC(=O)[C@H](C)N2CCC(CC2)C(F)(F)c2cccc1c2 [Compound 153, 1-((4R,13S)-2,2-difluoro-4,13-dimethyl-6^7,12-dioxo-6^7,6^8-dihydro-5,11-diaza-6(4,8)-pyrido[2,3-d]pyrimidina-1(4,1)-piperidina-3(1,3)-benzenacyclotridecaphane-6^6-yl)cyclopropane-1-carbonitrile]
< 100 nM | < 1000 nM |  |  | CC(C)N1CCN(c2cc3c4ncnc3n(c2=O)CCCCCN2CCC(CC2)CCC(F)(F)c2cccc(c2)[C@@H](C)N4)CC1 [Compound 154, (3R)-5,5-difluoro-1^6-(4-isopropylpiperazin-1-yl)-3-methyl-1^7,1^8-dihydro-2-aza-1(4,8)-pyrido[2,3-d]pyrimidina-8(4,1)-piperidina-4(1,3)-benzenacyclotridecaphan-1^7-one]
< 100 nM | < 1000 nM |  |  | C[C@H]1Nc2ncnc3c2cc(C2CCS(=O)(=O)CC2)c(=O)n3CCCCCCN2CCC(CC2)CC(F)(F)c2cccc1c2F [Compound 156, (3R)-1^6-(1,1-dioxidothiomorpholino)-4^2,5,5-trifluoro-3-methyl-1^7,1^8-dihydro-2-aza-1(4,8)-pyrido[2,3-d]pyrimidina-7(4,1)-piperidina-4(1,3)-benzenacyclotridecaphan-1^7-one]
< 100 nM | < 1000 nM |  |  | C[C@H]1Nc2ncnc3c2cc(C2(C#N)CC2)c(=O)n3CC(=O)NCCCCN2CCC(CC2)C(F)(F)c2cccc1c2F [Compound 158, 1-((4R)-3^2,2,2-trifluoro-4-methyl-6^7,8-dioxo-6^7,6^8-dihydro-5,9-diaza-6(4,8)-pyrido[2,3-d]pyrimidina-1(4,1)-piperidina-3(1,3)-benzenacyclotridecaphane-6^6-yl)cyclopropane-1-carbonitrile]
< 100 nM | < 1000 nM | < 50 nM | < 500 nM | C[C@H]1Nc2ncnc3c2cc(C2(C#N)CC2)c(=O)n3CCCC/C=C\CN2CCC(CC2)C(F)(F)c2cccc1c2 [Compound 159, 1-((4R,Z)-2,2-difluoro-4-methyl-6^7-oxo-6^7,6^8-dihydro-5-aza-6(4,8)-pyrido[2,3-d]pyrimidina-1(4,1)-piperidina-3(1,3)-benzenacyclotridecaphan-11-en-6^6-yl)cyclopropane-1-carbonitrile]
< 100 nM | < 1000 nM |  |  | C[C@H]1Nc2ncnc3c2cc(C2CCS(=O)(=O)CC2)c(=O)n3CCCCn2cc(nn2)CN2CCC(CC2)C(F)(F)c2cccc1c2 [Compound 160, (6R,Z)-8^6-(1,1-dioxidotetrahydro-2H-thiopyran-4-yl)-4,4-difluoro-6-methyl-8^7,8^8-dihydro-1^1H-7-aza-8 (4,8)-pyrido[2,3-d]pyrimidina-3(1,4)-piperidina-1(4,1)-triazola-5(1,3)-benzenacyclododecaphan-8^7-one]
< 100 nM | < 1000 nM |  |  | C[C@H]1Nc2ncnc3c2cc(C2CCS(=O)(=O)CC2)c(=O)n3CCCCCCCN2CC(C2)CC(F)(F)c2cccc1c2 [Compound 161, (3R)-1^6-(1,1-dioxidotetrahydro-2H-thiopyran-4-yl)-5,5-difluoro-3-methyl-1^7,1^8-dihydro-2-aza-1(4,8)-pyrido[2,3-d]pyrimidina-7(3,1)-azetidina-4(1,3)-benzenacyclotetradecaphan-1^7-one]
< 100 nM | < 1000 nM |  |  | CC(C)N1CCC(c2cc3c4ncnc3n(c2=O)CCCCCCCN2CCC(CC2)C(F)(F)c2cccc(c2F)[C@@H](C)N4)CC1 [Compound 162, (4R)-3^2,2,2-trifluoro-6^6-(1-isopropylpiperidin-4-yl)-4-methyl-6^7,6^8-dihydro-5-aza-6(4,8)-pyrido[2,3-d]pyrimidina-1(4,1)-piperidina-3(1,3)-benzenacyclotridecaphan-6^7-one]
< 100 nM | < 1000 nM |  |  | CC(C)N1CCN(c2cc3c4ncnc3n(c2=O)CC(=O)N(C)CCCCN2CCC(CC2)C(F)(F)c2cccc(c2)[C@@H](C)N4)CC1 [Compound 163, (4R)-2,2-difluoro-6^6-(4-isopropylpiperazin-1-yl)-4,9-dimethyl-6^7,6^8-dihydro-5,9-diaza-6(4,8)-pyrido[2,3-d]pyrimidina-1(4,1)-piperidina-3(1,3)-benzenacyclotridecaphane-6^7,8-dione]
< 100 nM | < 1000 nM | < 50 nM |  | Cc1nc2c3cc(C4(C#N)CC4)c(=O)n(c3n1)CCC/C=C\CN1CCC(CC1)C(F)(F)c1cccc(c1)[C@@H](C)N2 [Compound 166, 1-((4R,Z)-2,2-difluoro-6^2,4-dimethyl-6^7-oxo-6^7,6^8-dihydro-5-aza-6(4,8)-pyrido[2,3-d]pyrimidina-1(4,1)-piperidina-3(1,3)-benzenacyclododecaphan-10-en-6^6-yl)cyclopropane-1-carbonitrile]
< 100 nM | 1000 to 10000 nM | < 50 nM |  | Cc1nc2c3cc(C4(C#N)CC4)c(=O)n(c3n1)CCCC/C=C\CN1CCC(CC1)C(F)(F)c1cccc(c1F)[C@@H](C)N2 [Compound 168, 1-((4R,Z)-3^2,2,2-trifluoro-6^2,4-dimethyl-6^7-oxo-6^7,6^8-dihydro-5-aza-6(4,8)-pyrido[2,3-d]pyrimidina-1(4,1)-piperidina-3(1,3)-benzenacyclotridecaphan-11-en-6^6-yl)cyclopropane-1-carbonitrile]
< 100 nM | < 1000 nM |  |  | Cc1nc2c3cc(C4(C#N)CC4)c(=O)n(c3n1)CCCCCN1CCC(CC1)C(F)(F)c1cccc(c1)[C@@H](C)N2 [Compound 169, 1-((4R)-2,2-difluoro-6^2,4-dimethyl-6^7-oxo-6^7,6^8-dihydro-5-aza-6(4,8)-pyrido[2,3-d]pyrimidina-1(4,1)-piperidina-3(1,3)-benzenacycloundecaphane-6^6-yl)cyclopropane-1-carbonitrile]
